Patent publication US20260078089A1, “BIOACTIVE PHYTOCHEMICALS IN ZIZYPHUS AND GUARANA” (Phytoquest Limited, priority 2018, published 2026)

Assays:
N1Neu = N1Neu sialidase inhibition screen; type: biochemical; conditions: 2 mM Zanamivir; 1500 ug Zizyphus extract; 10 minute time point
Protocol: An initial screen of N1Neu inhibition using a variety of compounds and the commercially available sialidase (neuraminidase) inhibitor Zanamivir (which is sold in the pharmaceutical preparation “Relenza™” as a treatment for flu) was performed.
Sialidase assays were performed, reactions contained 0.1 mM MUNANA, pH 7.4 50 mM Tris, 5 mM CaCl2), 200 mM NaCl, plant extract or the control sialidase inhibitor Zanamivir at the concentrations indicated, or no putative inhibitor. N1Neu was present at 0.025 μg/ml in reactions. 50 μl of these reactions were quenched using 100 μl of 100 mM sodium carbonate buffer, pH 10.5, at 5 minutes and 10 minutes. The 10 minute time point was used to assess sialidase activity. Data shown represent the mean of one experiment, where each condition was repeated in triplicate. MU present in quenched reactions was quantified using TECAN M200 Infinite microplate reader at excitation 340 nm emission 430 nm, and expressed as the percentage of sialidase activity (MU fluorescence) relative to the no inhibitor condition.

[1] = system: sialidase of P. gingivalis homogenate; assay: Sialidase activity of homogenate of P. gingivalis; type: biochemical, Porphyromonas gingivalis; conditions: 2 mM Zanamivir; 1500 μg/ml Zizyphus
Protocol: (§1) MU release can be used to quantify sialidase activity.
(§2) Whole bacteria or purified sialidases were exposed to MUNANA, in the presence or absence of compound 1 (Example 3) or Zizyphus fruit 50% aqueous ethanol extract containing 1% of the N-methyl-prolines.
(§3) […] Reactions were stopped at 30 seconds and 60 seconds via addition of ph 10.5 60 mM sodium carbonate buffer. Release of fluorogenic MU was quantified by measuring fluorescence emission at 450 nm, excitation 350 nm. Percentage sialidase activity was expressed as the change in fluorescence between 30 seconds and 60 seconds compared to that of a reaction without inhibitor. Reactions were carried out in triplicate.

[2] = system: sialidase of T. forsythia homogenate; assay: Sialidase activity of homogenate of T. forsythia; type: biochemical, Tannerella forsythia; conditions: 2 mM Zanamivir; 1500 μg/ml Zizyphus
Protocol: as §1, §2, §3

CC(=O)N[C@H]1[C@H]([C@H](O)[C@H](O)CO)OC(C(=O)O)=C[C@@H]1N=C(N)N [Zanamivir]
% inhibition (N1Neu): 100%
% inhibition [1]: 51%
% inhibition [2]: 22%
